Read-outs that look alike come from different tables or passages of the source.
What was measured:
Daphnia sp. [1] = conditions: OECD Test No. 202 acute immobilisation
Procedure: The polyisobutylene substituted phenol described in Example 1 was tested for Acute Ecotox Value for Invertebrate using the OECD Guidelines for the Testing of Chemicals, Test No. 202 Daphnia sp. Acute Immobilisation Test (2004). Samples of alkyl-phenols having C4 and C8 alkyl groups were compared to the Sample of Example 1. A published test value for PDDP using the same test method is also included as a comparison.

Daphnia sp. [2] = conditions: published value, same test method; Daphnia magna, Sewell & McKenzie (2005a); cited from earlier work

| Substance | Acute Ecotox Value for Invertebrate daphnid (EC50) (Daphnia sp. [1]) [µg/mL] | Acute Ecotox Value for Invertebrate daphnid (EC50) (Daphnia sp. [2]) [µg/mL] |
| --- | --- | --- |
| 350 Mn polyisobutylene-alkylated phenol [Example 1] | >100 | – |
| PDDP [Comparative Ex. 3] | – | 0.037 |

From patent US20210269734A1, “POLYISOBUTYLENE-SUBSTITUTED PHENOL, DERIVATIVES THEREOF, AND LUBRICATING COMPOSITIONS CONTAINING THE POLYISOBUTYLENE-SUBSTITUTED PHENOL AND ITS DERIVATIVES” (The Lubrizol Corporation, priority 2016, published 2021)
